Laboratory results from patent US6479435B1, “Diaryl ethers and processes for their preparation and herbicidal and desiccant compositions containing them” (ISK Americas Incorporated, priority 1997, dated 2002).

Key:
Assay type in all cases: in vivo
Grass Weeds [1] = assay: Pre-emergent application in combination with other herbicides, percent control of grass weeds; conditions: 62.5 g ai/ha
Experimental: (§1) All plants were grown in 10 cm square plastic pots which were filled with a sandy loam soil mix. For preemerge tests, seeds were planted one day prior to application of the test compounds. Immediately after application, test units of the pre-emerge applications were watered at the soil surface to incorporate the test materials. Subsequently, these test units were bottom-watered.
(§2) All test compounds were dissolved in acetone and applied to the test units in a volume of 187 l/ha. […] Plants were arranged on a shelf so that the top of the canopy (post-emerge) or top of the soil surface (pre-emerge) was 40-45 cm below the nozzle. Pressurized air was used to force the test solution through the nozzle as it was mechanically advanced (via electrically driven chain drive) over the top of all test plants/pots. This application simulates a typical commercial field herbicide application.
(§3) At 14 days after application of the test materials, phytotoxicity ratings were recorded. A rating scale of 0-100 was used as previously described in Research Methods in Weed Science, 2nd edition, B. Truelove, Ed., Southern Weed Science Society, Auburn University, Auburn, Ala., 1977. Briefly, “0” corresponds to no damage and “100” corresponds to complete death of all plants in the test unit. This scale was used both to determine efficacy against weed species and damage to crop species. Herbicide activity data for various compounds of this invention, which are shown by compound number in Tables 1-9, are shown in Tables 13 and 14.
(§4) (Note: Weed species abbreviations are from the Composite List of Weeds published by the Weed Science Society of America, 1989.)
The following examples illustrate the utility of combinations of compounds of this invention and existing herbicides. The methods used are identical to those for the application of single compounds except the commercial formulations of existing herbicides were added to the spray mixture in the appropriate amounts before spraying.
Combination Example 1. Pre-emergent Application of Compound 9-1 with Metolachlor
(§5) Combination Example 2. Pre-emergent Application of Compound 9-1 with Dimethenamid

Broadleaf Weeds = assay: Pre-emergent application in combination with other herbicides, percent control of broadleaf weeds; conditions: 62.5 g ai/ha
Experimental: as §1, §2, §3, §4
The following examples illustrate the utility of combinations of compounds of this invention and existing herbicides. The methods used are identical to those for the application of single compounds except the commercial formulations of existing herbicides were added to the spray mixture in the appropriate amounts before spraying. […]
as §5

Grass Weeds [2] = assay: Post-emergent application in combination with other herbicides, percent control of grass weeds; conditions: 31.25 g ai/ha
Experimental: All test compounds were dissolved in acetone and applied to the test units in a volume of 187 l/ha. Test materials were applied at rates ranging from 125 g ai/ha to 1000 g ai/ha using a track sprayer equipped with a TJ8001E even flow flat fan spray nozzle. Plants were arranged on a shelf so that the top of the canopy (post-emerge) or top of the soil surface (pre-emerge) was 40-45 cm below the nozzle. Pressurized air was used to force the test solution through the nozzle as it was mechanically advanced (via electrically driven chain drive) over the top of all test plants/pots. This application simulates a typical commercial field herbicide application. In the post-emerge test, a commercial non-ionic surfactant was also included (0.25% v/v) to enhance wetting of the leaf surfaces Qf target plants at rates ranging from 63 g ai/ha to 1000 g ai/ha. For post-emerge tests, seeds were planted 8-21 days prior to the test to allow emergence and good foliage development prior to application of the test substances. At the time of the post-emerge application, plants of all species were usually at the 2-3 leaf stage of development. Post-emerge test units were always bottom-watered. At 14 days after application of the test materials, phytotoxicity ratings were recorded. A rating scale of 0-100 was used as previously described in Research Methods in Weed Science, 2nd edition, B. Truelove, Ed., Southern Weed Science Society, Auburn University, Auburn, Ala., 1977. Briefly, “0” corresponds to no damage and “100” corresponds to complete death of all plants in the test unit. This scale was used both to determine efficacy against weed species and damage to crop species. Herbicide activity data for various compounds of this invention, which are shown by compound number in Tables 1-9, are shown in Tables 13 and 14. […] (Note: Weed species abbreviations are from the Composite List of Weeds published by the Weed Science Society of America, 1989.) The following examples illustrate the utility of combinations of compounds of this invention and existing herbicides. The methods used are identical to those for the application of single compounds except the commercial formulations of existing herbicides were added to the spray mixture in the appropriate amounts before spraying. Combination Example 3. Post-emergent Application of Compound 9-1 with Nicosulfuron Combination Example 4. Postemergent Application of Compound 9-1 with Pyridate

SMILES: Nn1c(C(F)(F)F)cc(=O)n(-c2cc(Oc3ncccc3[N+](=O)[O-])c(Cl)cc2F)c1=O [Compound 9-1, 1-amino-3-[4-chloro-2-fluoro-5-(3-nitro-2-pyridyloxy)phenyl]-6-trifluoromethyl-1,2,3,4-tetrahydropyrimidine-2,4-dione]
- Percent Control of Grass Weeds DIGSA (Grass Weeds [1]): 20%
- Percent Control of Grass Weeds DIGSA (Grass Weeds [1]; Combination Example 2): 20%
- Percent Control of Grass Weeds ECHCG (Grass Weeds [1]): 0%
- Percent Control of Grass Weeds ECHCG (Grass Weeds [1]; Combination Example 2): 0%
- Percent Control of Grass Weeds SETVI (Grass Weeds [1]): 90%
- Percent Control of Grass Weeds SETVI (Grass Weeds [1]; Combination Example 2): 90%
- Percent Control of Grass Weeds SORHA (Grass Weeds [1]): 0%
- Percent Control of Grass Weeds SORHA (Grass Weeds [1]; Combination Example 2): 0%
- Percent Control of Broadleaf Weeds ABUTH (Broadleaf Weeds): 95%
- Percent Control of Broadleaf Weeds ABUTH (Broadleaf Weeds; Combination Example 2): 95%
- Percent Control of Broadleaf Weeds AMARE (Broadleaf Weeds): 100%
- Percent Control of Broadleaf Weeds AMARE (Broadleaf Weeds; Combination Example 2): 100%
- Percent Control of Broadleaf Weeds AMBEL (Broadleaf Weeds): 40%
- Percent Control of Broadleaf Weeds AMBEL (Broadleaf Weeds; Combination Example 2): 40%
- Percent Control of Broadleaf Weeds CASOB (Broadleaf Weeds): 10%
- Percent Control of Broadleaf Weeds CASOB (Broadleaf Weeds; Combination Example 2): 10%
- Percent Control of Broadleaf Weeds CHEAL (Broadleaf Weeds): 100%
- Percent Control of Broadleaf Weeds CHEAL (Broadleaf Weeds; Combination Example 2): 100%
- Percent Control of Broadleaf Weeds IPOHE (Broadleaf Weeds): 50%
- Percent Control of Broadleaf Weeds IPOHE (Broadleaf Weeds; Combination Example 2): 50%
- Percent Control of Grass Weeds DIGSA (Grass Weeds [2]): 10%
- Percent Control of Grass Weeds DIGSA (Grass Weeds [2]; Combination Example 4): 10%
- Percent Control of Grass Weeds ECHCG (Grass Weeds [2]): 0%
- Percent Control of Grass Weeds ECHCG (Grass Weeds [2]; Combination Example 4): 0%
- Percent Control of Grass Weeds SETVI (Grass Weeds [2]): 10%
- Percent Control of Grass Weeds SETVI (Grass Weeds [2]; Combination Example 4): 10%
- Percent Control of Grass Weeds SORHA (Grass Weeds [2]): 10%
- Percent Control of Grass Weeds SORHA (Grass Weeds [2]; Combination Example 4): 10%
